Results reported in patent publication US20100068782A1, “METHOD FOR THE SURFACE TREATMENT OF SOLID SUBSTRATES” (UNIVERSIDAD DEL (PIAS) PAIS VASCO, priority 2006, published 2010).
Non-standard residues stand in square brackets, D forms with d. Residues, ends and D or L forms follow the SMILES beside them. *: point of attachment. Fmoc = O=C(OCC1c2ccccc2-c2ccccc21)*; Cha = N[C@@H](CC1CCCCC1)C(=O)O; AMC = Cc1cc(=O)oc2cc(N*)ccc12

Tested on: galanin receptors
Assay: autoradiography of [35S]GTPγS binding in tissue arrays of isolated cell membranes with ligands of galanin receptors
Format: biochemical, Sprague Dawley rats
Conditions: for binding of [35S]GTPγS in the presence of ligand: some tissues (e.g., pituitary), membranes on slides treated with orthophosphoric acid, vs basal; for antagonism of the action of galnon on [35S]GTPγS binding: galnon + antagonist, tissue arrays (FIG. 7)
Description: Five male Sprague Dawley rats (250-275 g) were anesthetized and sacrificed according to the guide approved by the Ethics Committee of the Faculty of Medicine of the Basque Country University following internationally accepted guidelines (86/609/EEC). Organs and tissues which would be used in the experiment (pancreas, stomach, small intestine, spleen, heart, lung, liver, testicle, deferent duct, kidney, suprarenal glands, spinal cord and brain: frontal cortex, striatum, brain stem, pituitary, olfactory nuclei, hippocampus, hypothalamus, thalamus, colliculus and cerebellum) were subsequently extracted. These samples were stored at −70° C. until performing the experiment.
The tissue samples (1 g) were homogenized using a Teflon-glass homogenizer (10 taps at 1,500 rpm) in 30 volumes of homogenization buffer 1 mM [ethylene glycol-bis(β-aminoethyl)-N,N,N′,N′-tetraacetic acid (EGTA), 3 mM MgCl2, 1 mM dithiothreitol (DTT) and 50 mM Tris-HCl, pH 7.4] supplemented with […] sucrose. The crude homogenate was centrifuged at 3,000×g and at 4° C. for 5 minutes and the resulting supernatant was again centrifuged at 40,000×g for 10 minutes (4° C.). The pellet was washed in 20 volumes of homogenization buffer and re-centrifuged in the same conditions. Aliquots were prepared and stored at −70° C. The protein content was determined according to the Bradford method [Bradford M M., Anal Biochem 1976; 72:248-54] using bovine serum albumin (BSA) as standard.
Aliquots of 1 mg/ml of each tissue were taken and with this suspension, 1 μl microspots were made on glass supports (microscope slides) subjected to the following treatments: • a) Treated with orthophosphoric acid (PA) according to the process of Example 1; • b) Gelatinized (G); • c) Coated with gamma-aminopropyltriethoxysilane (APTS); • d) Treated with nitric acid and gelatinized (NA); • e) Treated with nitric acid and subsequently with lignin (NA+lignin); • f) Treated with nitric acid and subsequently with pectin (NA+pectin); or • g) Treated with nitric acid and subsequently with Kuzu (NA+Kuzu).
The microscope slides with the tissue sections were left drying for 15 minutes at room temperature. Subsequently the tissue sections were preincubated in assay buffer at pH 7.4 [50 mM Tris-HCl, 3 mM MgCl2, 0.2 mM EGTA, 100 mM NaCl, 3 mU/ml adenosine deaminase] for 20 minutes at room temperature to eliminate, as much as possible, the presence of endogenous neurotransmitters; after that, the sections were again preincubated in the assay buffer supplemented with guanosine diphosphate (GDP) (2 mM) and DTT (1 mM).
The microscope slides were then incubated for 2 hours at 30° C. in the previous assay buffer, to which the following substances were added depending on the different conditions of the experiment:
After this time, 2 15-minute washings were performed in 50 mM Tris-HCl buffer, pH 7.4 at 4° C. After the second washing, the sections were immersed in distilled water at 4° C. to eliminate the salts and the microscope slides were dried by means of the application of a cold airflow.
Subsequently, the microscope slides with the corresponding sections were exposed to a radiosensitive film (Kodak Biomax MR) which was developed similarly to photographic film. The labeling was quantified transforming the different gray densities into nCi/g tissue equivalent. To that end, each film was exposed together with previously calibrated commercial standards (Amersham). The quantification was performed with microscopic anatomical resolution in a computerized image analysis system, using NIH-image software.
The substances added in the different assays were the following: • (A) To study the binding of [^35S]GTPγS in the absence (basal) and in the presence of agonists, the following agonists were used: • (i) the cannabinoid agonist WIN 55212-2 [(R)-(+)-[2,3-dihydro-5-methyl-3-[(4-morpholinyl)methyl]pyrrolo[1,2,3-d,e]-1.4-benzoxazin-6-yl]-(1-naphthalenyl)methanone mono-methanesulphonate] […]

Molecule: gal(2-11)
- binding of [35S]GTPγS in the presence of ligand: increases

Molecule: galanin-(1-13)-Pro-Pro-Ala-Leu-Ala-Leu-Ala-Leu-Ala amide [M40]
- antagonism of the action of galnon on [35S]GTPγS binding: antagonized
- binding of [35S]GTPγS in the presence of ligand: increases

Molecule: Cc1cc(=O)oc2cc(NC(=O)[C@H](CCCCN)NC(=O)[C@H](CC3CCCCC3)NC(=O)OCC3c4ccccc4-c4ccccc43)ccc12 [galnon] (Fmoc-[Cha]-Lys-{AMC})
- binding of [35S]GTPγS in the presence of ligand: increases

Molecule: galanin-(1-13)-bradykinin,-(2,9)amide [M35]
- antagonism of the action of galnon on [35S]GTPγS binding: antagonized
- binding of [35S]GTPγS in the presence of ligand: increases

Molecule: galanin-(1-13)-substance P-5-11 amide [M15]
- binding of [35S]GTPγS in the presence of ligand: increases
